Read-outs that look alike come from different tables or passages of the source.
Test system: wild‐type BCG cells
Type: cell-based, M. bovis BCG

SMILES: O=C(Oc1ccc(Cl)cc1)c1ccc(N2CCOCC2)c([N+](=O)[O-])c1 [GDI‐5755]
- ClpB upregulation (2‐day treated cells): 1.56 fold
- detected proteome downregulated (2‐day treatment, 2×MIC): ~ 37.9%
- ClpB upregulation (3‐day treated cells): 1.47 fold
- Mean_Ratio (GDI5755_3d vs DMSO_3d) (3 d): 0.7
- number of proteins accumulated (upregulated) (Day 2): 216 proteins
- proteome remaining downregulated into the third day (Day 2 and Day 3): 29.1%
- number of proteins accumulated (upregulated) (Day 3): 188 proteins
- EthA upregulation (GDI‐5755‐treated cells): > 1.4 fold
- Mean_Ratio GDI5755_3d: DMSO_3d (Table S5, BCG_0001 Chromosomal replication initiator protein DnaA): 0.8
- Mean_Ratio GDI5755_3d: DMSO_3d (Table S5, BCG_0066 Fatty-acid-coa ligase fadD34): 0.7
- Mean_Ratio GDI5755_3d: DMSO_3d (Table S5, BCG_0101c Serine hydroxy methyltransferase): 0.8
- Mean_Ratio GDI5755_3d: DMSO_3d (Table S5, BCG_0207 MCE-family protein mce1B): 0.7
- Mean_Ratio GDI5755_3d: DMSO_3d (Table S5, BCG_0208 MCE-family protein mce1C): 0.8
- Mean_Ratio GDI5755_3d: DMSO_3d (Table S5, BCG_0209 MCE-family protein mce1D): 0.7
- Mean_Ratio GDI5755_3d: DMSO_3d (Table S5, BCG_0210 MCE-family lipoprotein lprK): 0.7
- Mean_Ratio GDI5755_3d: DMSO_3d (Table S5, BCG_0211 MCE-family protein mce1F): 0.7
- Mean_Ratio GDI5755_3d: DMSO_3d (Table S5, BCG_0442 Probable fatty-acid-CoA ligase fadD30): 0.7
- Mean_Ratio GDI5755_3d: DMSO_3d (Table S5, BCG_0495c Enoyl-CoA hydratase echA2): 0.5
- Mean_Ratio GDI5755_3d: DMSO_3d (Table S5, BCG_0546c cmaA2): 0.7
- Mean_Ratio GDI5755_3d: DMSO_3d (Table S5, BCG_0547c UPF0336 protein): 0.8
- Mean_Ratio GDI5755_3d: DMSO_3d (Table S5, BCG_0591c Possible oxidoreductase): 0.8
- Mean_Ratio GDI5755_3d: DMSO_3d (Table S5, BCG_0692c Methoxy mycolic acid synthase 3 mmaA3): 0.6
- Mean_Ratio GDI5755_3d: DMSO_3d (Table S5, BCG_0693c Methoxy mycolic acid synthase 2 mmaA2): 0.7
- Mean_Ratio GDI5755_3d: DMSO_3d (Table S5, BCG_1048 UTP--glucose-1-phosphate uridylyltransferase): 0.7
- Mean_Ratio GDI5755_3d: DMSO_3d (Table S5, BCG_1203c Probable enoyl-CoA hydratase echA11): 0.7
- Mean_Ratio GDI5755_3d: DMSO_3d (Table S5, BCG_1311c Uncharacterized protein): 0.8
- Mean_Ratio GDI5755_3d: DMSO_3d (Table S5, BCG_1534 Macrolide-transport ATP-binding protein ABC transporter): 0.8
- Mean_Ratio GDI5755_3d: DMSO_3d (Table S5, BCG_1579c Mycocerosic acid synthase-like polyketide synthase): 0.7
- Mean_Ratio GDI5755_3d: DMSO_3d (Table S5, BCG_1619c Possible inv protein): 0.7
- Mean_Ratio GDI5755_3d: DMSO_3d (Table S5, BCG_1699 Possible chalcone synthase pks10): 0.8
- Mean_Ratio GDI5755_3d: DMSO_3d (Table S5, BCG_1896 Alanine and proline-rich secreted protein Apa): 0.6
- Mean_Ratio GDI5755_3d: DMSO_3d (Table S5, BCG_1922c Chorismate mutase): 0.7
- Mean_Ratio GDI5755_3d: DMSO_3d (Table S5, BCG_1923c Mycolyltransferase Ag85B): 0.7
- Mean_Ratio GDI5755_3d: DMSO_3d (Table S5, BCG_1962 Probable lipase lipD): 0.6
- Mean_Ratio GDI5755_3d: DMSO_3d (Table S5, BCG_2254 ER-bound oxygenase mpaB): 0.8
- Mean_Ratio GDI5755_3d: DMSO_3d (Table S5, BCG_2260 Malonyl CoA-acyl carrier protein transacylase fabD): 0.7
- Mean_Ratio GDI5755_3d: DMSO_3d (Table S5, BCG_2310 Probable aminotransferase): 0.8
- Mean_Ratio GDI5755_3d: DMSO_3d (Table S5, BCG_2317 Cutinase): 0.7
- Mean_Ratio GDI5755_3d: DMSO_3d (Table S5, BCG_2546c Putative peptidoglycan hydrolase): 0.8
- Mean_Ratio GDI5755_3d: DMSO_3d (Table S5, BCG_2550 ERCC4 domain-containing protein): 0.7
- Mean_Ratio GDI5755_3d: DMSO_3d (Table S5, BCG_2886c Possible penicillin-binding lipoprotein): 0.6
- Mean_Ratio GDI5755_3d: DMSO_3d (Table S5, BCG_2977 Methyltransferase FkbM domain-containing protein): 0.7
- Mean_Ratio GDI5755_3d: DMSO_3d (Table S5, BCG_3009c 3-isopropylmalate dehydratase large subunit): 0.6
- Mean_Ratio GDI5755_3d: DMSO_3d (Table S5, BCG_3111 alcohol dehydrogenase adhD): 0.8
- Mean_Ratio GDI5755_3d: DMSO_3d (Table S5, BCG_3296 LytR family transcriptional regulator): 0.8
- Mean_Ratio GDI5755_3d: DMSO_3d (Table S5, BCG_3375 Possible acid phosphatase): 0.8
- Mean_Ratio GDI5755_3d: DMSO_3d (Table S5, BCG_3658 Probable conserved lipoprotein lpqF): 0.8
- Mean_Ratio GDI5755_3d: DMSO_3d (Table S5, BCG_3731c Possible chalcone synthase pks11): 0.7
- Mean_Ratio GDI5755_3d: DMSO_3d (Table S5, BCG_3772 Lipid II isoglutaminyl synthase subunit MurT): 0.7
- Mean_Ratio GDI5755_3d: DMSO_3d (Table S5, BCG_3866c Mycolyltransferase Ag85A): 0.8
- Mean_Ratio GDI5755_3d: DMSO_3d (Table S5, BCG_3882c Trehalose-2-sulfate acyltransferase PapA2): 0.8
- Mean_Ratio GDI5755_3d: DMSO_3d (Table S6, BCG_0130 decarboxylase): 1.5
- Mean_Ratio GDI5755_3d: DMSO_3d (Table S6, BCG_0289c Heat stress-induced ribosome-binding protein A, acr2): 3.9
- Mean_Ratio GDI5755_3d: DMSO_3d (Table S6, BCG_0347c Acetoacetate decarboxylase): 1.3
- Mean_Ratio GDI5755_3d: DMSO_3d (Table S6, BCG_0389 Chaperone protein DnaK): 1.5
- Mean_Ratio GDI5755_3d: DMSO_3d (Table S6, BCG_0390 Protein GrpE/HSP-70 cofactor): 1.4
- Mean_Ratio GDI5755_3d: DMSO_3d (Table S6, BCG_0391 Chaperone protein DnaJ): 1.5
- Mean_Ratio GDI5755_3d: DMSO_3d (Table S6, BCG_0422c Chaperone protein ClpB): 1.5
- Mean_Ratio GDI5755_3d: DMSO_3d (Table S6, BCG_0463c Uncharacterized protein): 1.4
- Mean_Ratio GDI5755_3d: DMSO_3d (Table S6, BCG_0726c Possible conserved membrane protein mmpS5): 1.4
- Mean_Ratio GDI5755_3d: DMSO_3d (Table S6, BCG_0774 Possible protease IV sppA (Endopeptidase IV)): 1.4
- Mean_Ratio GDI5755_3d: DMSO_3d (Table S6, BCG_0909 Cyclase): 1.3
- Mean_Ratio GDI5755_3d: DMSO_3d (Table S6, BCG_0993 Bifunctional 2-hydroxyhepta-2,4-diene-1,7-dioate isomerase): 1.3
- Mean_Ratio GDI5755_3d: DMSO_3d (Table S6, BCG_1028c Probable acetyl-/propionyl-coa carboxylase, accD2): 1.4
- Mean_Ratio GDI5755_3d: DMSO_3d (Table S6, BCG_1037 Two-component sensor kinase MprB): 1.2
